Data taken from the supplement of paper PMC5908809.

How the values were obtained:
SNK-6 (IL-2 2.5 ng/mL) [1] = assay: drug sensitivity score (DSS) (DSS units); higher = more sensitive; extreme values may be limits of the assay; details: 72 h
YT (IL-2 2.5 ng/mL) [2] = assay: as above; details: 72 h
[3] = test system: normal primary NK cells, pool 1 (3 donors) (IL-2 2.5 ng/mL); assay: as above; details: 72 h
[4] = test system: normal primary NK cells, pool 3 (3 donors) (IL-2 2.5 ng/mL); assay: as above; details: 72 h
DERL-7 (IL-2 2.5 ng/mL) [5] = assay: as above; details: 72 h
NK-92 (IL-2 2.5 ng/mL) [6] = assay: as above; details: 72 h
KAI3 (IL-2 2.5 ng/mL) [7] = assay: as above; details: 72 h
[8] = test system: normal primary NK cells, pool 1 (3 donors), resting (IL-2 0 ng/mL); assay: as above; details: 72 h
KHYG-1 (IL-2 2.5 ng/mL) [9] = assay: as above; details: 72 h
NK-YS (IL-2 2.5 ng/mL) [10] = assay: as above; details: 72 h
[11] = test system: normal primary NK cells, pool 2 (3 donors) (IL-2 2.5 ng/mL); assay: as above; details: 72 h
IMC-1 (IL-2 20 ng/mL) [12] = assay: as above; details: 72 h
NKL (IL-2 2.5 ng/mL) [13] = assay: as above; details: 72 h
SNK-6 (IL-2 2.5 ng/mL) [14] = assay: percent inhibition of viability; higher = more inhibition; details: 72 h
YT (IL-2 2.5 ng/mL) [15] = assay: as above; details: 72 h
[16] = test system: normal primary NK cells, pool 1 (3 donors) (IL-2 2.5 ng/mL); assay: as above; details: 72 h
[17] = test system: normal primary NK cells, pool 3 (3 donors) (IL-2 2.5 ng/mL); assay: as above; details: 72 h
DERL-7 (IL-2 2.5 ng/mL) [18] = assay: as above; details: 72 h
NK-92 (IL-2 2.5 ng/mL) [19] = assay: as above; details: 72 h
KAI3 (IL-2 2.5 ng/mL) [20] = assay: as above; details: 72 h
[21] = test system: normal primary NK cells, pool 1 (3 donors), resting (IL-2 0 ng/mL); assay: as above; details: 72 h
KHYG-1 (IL-2 2.5 ng/mL) [22] = assay: as above; details: 72 h
NK-YS (IL-2 2.5 ng/mL) [23] = assay: as above; details: 72 h
[24] = test system: normal primary NK cells, pool 2 (3 donors) (IL-2 2.5 ng/mL); assay: as above; details: 72 h
IMC-1 (IL-2 20 ng/mL) [25] = assay: as above; details: 72 h
NKL (IL-2 2.5 ng/mL) [26] = assay: as above; details: 72 h
[27] = test system: normal NK cells expanded with K562-aAPC; assay: as above; details: 72 h, IL-2 2.5 ng/mL
Experimental: (§1)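 Drug sensitivity and resistance testing on K562-aAPC-expanded normal NK cells: 5 concentrations (10-fold steps over a 10,000-fold range), 72 h at 37 °C, viability by CellTiter-Glo normalised to DMSO and benzethonium chloride controls; DSS from the fitted curve.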

[28] = test system: normal NK cells expanded with K562-aAPC; assay: drug sensitivity score (DSS) (DSS units); higher = more sensitive; extreme values may be limits of the assay; details: 72 h; IL-2 2.5 ng/mL
Experimental: as §1

CCc1c(C(=O)C(N)=O)c2c(OCC(=O)O)cccc2n1Cc1ccccc1 [Varespladib] (max concentration tested 10000 nM)
Details | drug sensitivity score
DERL-7 (IL-2 2.5 ng/mL) [5] | 0
IMC-1 (IL-2 20 ng/mL) [12] | 0
KAI3 (IL-2 2.5 ng/mL) [7] | 0.68
KHYG-1 (IL-2 2.5 ng/mL) [9] | 0
NK-92 (IL-2 2.5 ng/mL) [6] | 1.34
NK-YS (IL-2 2.5 ng/mL) [10] | 0.22
NKL (IL-2 2.5 ng/mL) [13] | 0
SNK-6 (IL-2 2.5 ng/mL) [1] | 0
YT (IL-2 2.5 ng/mL) [2] | 0.02
[3] | 0
[4] | 0
[8] | 2.05
[11] | 0
[28] | 0

percent inhibition of viability [%]
Details | 1 nM | 10 nM | 100 nM | 1000 nM | 10000 nM
DERL-7 (IL-2 2.5 ng/mL) [18] | -6.07 | 2.76 | -0.45 | -1.82 | -5.52
IMC-1 (IL-2 20 ng/mL) [25] | -6.89 | -8.73 | -5.72 | -2.45 | -3.95
KAI3 (IL-2 2.5 ng/mL) [20] | -1.85 | -2.11 | -10.8 | -0.18 | 21.5
KHYG-1 (IL-2 2.5 ng/mL) [22] | -3.76 | -11.3 | -0.03 | 8.53 | 2.8
NK-92 (IL-2 2.5 ng/mL) [19] | -21.4 | -19.5 | -14.8 | -0.75 | 31.5
NK-YS (IL-2 2.5 ng/mL) [23] | -2.2 | -6.12 | -3.85 | 2.05 | 12.8
NKL (IL-2 2.5 ng/mL) [26] | -9.5 | -5.06 | -13.2 | 2.87 | -9.38
SNK-6 (IL-2 2.5 ng/mL) [14] | -7.52 | -21.8 | -13.8 | -2.84 | 6.58
YT (IL-2 2.5 ng/mL) [15] | -8.21 | -8.83 | -14.4 | -11.3 | 13.2
[16] | -5.21 | -8.55 | 9.76 | 0.64 | 7.95
[17] | -8.31 | -9.39 | -3.85 | -0.09 | 3.01
[21] | -21.1 | -19.8 | 7.01 | 11.6 | 26.9
[24] | -5.85 | -4.05 | 1.84 | 6.26 | 5.5
[27] | -11.2 | -11.6 | -12.4 | 3.91 | 4.13

Nc1cccc2c1CN(C1CCC(=O)NC1=O)C2=O (stereo not drawn) [Lenalidomide] (max concentration tested 100000 nM)
Details | drug sensitivity score
DERL-7 (IL-2 2.5 ng/mL) [5] | 0
IMC-1 (IL-2 20 ng/mL) [12] | 0.13
KAI3 (IL-2 2.5 ng/mL) [7] | 4.39
KHYG-1 (IL-2 2.5 ng/mL) [9] | 1.04
NK-92 (IL-2 2.5 ng/mL) [6] | 2.68
NK-YS (IL-2 2.5 ng/mL) [10] | 0.64
NKL (IL-2 2.5 ng/mL) [13] | 3.34
SNK-6 (IL-2 2.5 ng/mL) [1] | 8.33
YT (IL-2 2.5 ng/mL) [2] | 0.46
[3] | 0.82
[4] | 0.01
[8] | 7.86
[11] | 0.06
[28] | 1.25

percent inhibition of viability [%]
Details | 10 nM | 100 nM | 1000 nM | 10000 nM | 100000 nM
DERL-7 (IL-2 2.5 ng/mL) [18] | -8.15 | -7.59 | -6.54 | -8.34 | -1.1
IMC-1 (IL-2 20 ng/mL) [25] | -4.67 | 1.54 | 2.6 | 7.23 | 12.5
KAI3 (IL-2 2.5 ng/mL) [20] | -8.97 | 1.64 | -0.65 | 10.5 | 50.6
KHYG-1 (IL-2 2.5 ng/mL) [22] | -5.45 | 0.35 | 0.75 | 5.6 | 18.1
NK-92 (IL-2 2.5 ng/mL) [19] | -4.74 | -0.2 | 7.52 | 10.4 | 35.1
NK-YS (IL-2 2.5 ng/mL) [23] | -1.44 | -1.49 | 0.99 | 3.35 | 15.9
NKL (IL-2 2.5 ng/mL) [26] | -12.2 | -2.95 | -12.4 | 8.93 | 39.2
SNK-6 (IL-2 2.5 ng/mL) [14] | 5.02 | 1.16 | 7.72 | 40.7 | 50.3
YT (IL-2 2.5 ng/mL) [15] | 0.52 | 3.88 | 7 | 1.78 | 15.6
[16] | 4.48 | -7.64 | 6.17 | 0.68 | 22
[17] | -9.99 | -13.1 | 8.3 | -7.53 | 12.1
[21] | 1.29 | -2.98 | 10.6 | 35.5 | 59.5
[24] | -16.8 | -10.4 | 4.67 | -3.79 | 13.3
[27] | -4.41 | -0.84 | -0.51 | 11.3 | 16.5
